Experimental data taken from patent publication US9073918B2, “Pyrazolo[4,3-b]pyridine-7-amine inhibitors of ALK5” (Takeda Pharmaceutical Company Limited, priority 2010, dated 2015).

How the values were obtained:
[1] = target: T1, cellular TGF-β R1 ALK5 (Homo sapiens, UniProt P36897); test: Cellular inhibition of ALK5 (CellSensor SBE-bla HEK 293T beta-lactamase reporter); type: cell-based; conditions: cellular inhibition of ALK5, SBE-bla HEK 293T cells, TGFb-1 stimulated 5 hours; average where measured in multiple experiments
T1 construct: host or cells: CellSensor SBE-bla HEK 293T
T1 sequence (P36897 34-503): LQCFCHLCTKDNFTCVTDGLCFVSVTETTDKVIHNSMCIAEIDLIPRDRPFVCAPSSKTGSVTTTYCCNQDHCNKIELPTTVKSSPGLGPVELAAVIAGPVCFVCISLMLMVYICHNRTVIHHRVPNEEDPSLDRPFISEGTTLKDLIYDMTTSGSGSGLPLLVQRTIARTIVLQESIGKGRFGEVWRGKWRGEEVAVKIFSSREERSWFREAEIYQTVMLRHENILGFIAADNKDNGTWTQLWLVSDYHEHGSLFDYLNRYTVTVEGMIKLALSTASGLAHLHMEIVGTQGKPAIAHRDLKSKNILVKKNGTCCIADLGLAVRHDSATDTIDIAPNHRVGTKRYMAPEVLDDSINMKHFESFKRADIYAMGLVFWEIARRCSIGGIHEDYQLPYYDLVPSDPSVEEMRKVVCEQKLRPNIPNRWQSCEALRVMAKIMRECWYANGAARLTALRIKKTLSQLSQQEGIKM
How it was run: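 pIC50 derives from non-linear fitting of percent inhibition of the 460/530 nm CCF4-AM emission ratio, relative to DMSO+TGF-β wells. HEK 293T SBE-bla cells received compound (0.5% DMSO) for 1 h, TGFb-1 (100 ng/mL stock) for 5 h at 37 °C, then substrate 2 h at RT.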

[2] = target: T2, TGF-β R1 ALK5 (Homo sapiens, UniProt P36897); test: In vitro inhibition of ALK5 (LanthaScreen activity assay, TR-FRET); type: biochemical
T2 construct: purchased Invitrogen PV5837
T2 sequence (P36897 34-503): T1 sequence (P36897 34-503)

| IC50 [1] [nM] | IC50 [2] [nM] | SMILES |
| --- | --- | --- |
| 501 | 63.1 | Cc1ccc(F)c(-c2cc(Nc3ccnc4cn(CC(O)C(F)(F)F)nc34)ccn2)n1 (centres unmarked) [Example 112, 1,1,1-trifluoro-3-(7-(3′-fluoro-6′-methyl-2,2′-bipyridin-4-ylamino)-2H-pyrazolo[4,3-b]pyridin-2-yl)propan-2-ol] |
| 1580 | 50.1 | Cc1ccc(F)c(-c2cc(Nc3ccnc4cnn(CC(O)C(F)(F)F)c34)ccn2)n1 (centres unmarked) [Example 113, 1,1,1-trifluoro-3-(7-(3′-fluoro-6′-methyl-2,2′-bipyridin-4-ylamino)-1H-pyrazolo[4,3-b]pyridin-1-yl)propan-2-ol] |
| 1260 | 158 | Cc1ccc(F)c(-c2cc(Nc3ccnc4cn(C[C@@H](C)O)nc34)ccn2)n1 [Example 114, (R)-1-(7-(3′-fluoro-6′-methyl-2,2′-bipyridin-4-ylamino)-2H-pyrazolo[4,3-b]pyridin-2-yl)propan-2-ol] |
| 126 | 10 | Cc1ccc(F)c(-c2cc(Nc3ccnc4cnn(CC(=O)NC5CC5)c34)c(C)cn2)n1 [Example 117, N-cyclopropyl-2-(7-(3′-fluoro-5,6′-dimethyl-2,2′-bipyridin-4-ylamino)-1H-pyrazolo[4,3-b]pyridin-1-yl)acetamide] |
| 79.4 | 20 | Cc1ccc(F)c(-c2cc(Nc3ccnc4cn(CCC(C)(C)O)nc34)ccn2)n1 [Example 119, 4-(7-(3′-fluoro-6′-methyl-2,2′-bipyridin-4-ylamino)-2H-pyrazolo[4,3-b]pyridin-2-yl)-2-methylbutan-2-ol] |
| 12.6 | 3.16 | Cc1ccc(F)c(-c2cc(Nc3ccnc4cn(C5CC5)nc34)ccn2)n1 [Example 121, 2-cyclopropyl-N-(3′-fluoro-6′-methyl-2,2′-bipyridin-4-yl)-2H-pyrazolo[4,3-b]pyridin-7-amine] |
| 10 | 2 | Cc1ccc(F)c(-c2cc(Nc3ccnc4cn(C5CC5)nc34)c(C)cn2)n1 [Example 122, 2-cyclopropyl-N-(3′-fluoro-5,6′-dimethyl-2,2′-bipyridin-4-yl)-2H-pyrazolo[4,3-b]pyridin-7-amine] |
| 6.31 | 3.98 | Cc1ccc(F)c(-c2cc(Nc3ccnc4cnn(C)c34)c(C)cn2)n1 [Example 124, N-(3′-fluoro-5,6′-dimethyl-2,2′-bipyridin-4-yl)-1-methyl-1H-pyrazolo[4,3-b]pyridin-7-amine] |
| 39.8 | 15.8 | CCn1cc2nccc(Nc3ccnc(-c4nc(C)ccc4F)c3)c2n1 [Example 125, 2-ethyl-N-(3′-fluoro-6′-methyl-2,2′-bipyridin-4-yl)-2H-pyrazolo[4,3-b]pyridin-7-amine] |
| 31.6 | 7.94 | CCn1ncc2nccc(Nc3ccnc(-c4nc(C)ccc4F)c3)c21 [Example 127, 1-ethyl-N-(3′-fluoro-6′-methyl-2,2′-bipyridin-4-yl)-1H-pyrazolo[4,3-b]pyridin-7-amine] |
| 31.6 | 5.01 | Cc1ccc(F)c(-c2cc(Nc3ccnc4cnn(C5CC5)c34)ccn2)n1 [Example 133, 1-cyclopropyl-N-(3′-fluoro-6′-methyl-2,2′-bipyridin-4-yl)-1H-pyrazolo[4,3-b]pyridin-7-amine] |
| 50.1 | 2 | CCn1ncc2nccc(Nc3cc(-c4nc(C)ccc4F)ncc3C)c21 [Example 134, 1-ethyl-N-(3′-fluoro-5,6′-dimethyl-2,2′-bipyridin-4-yl)-1H-pyrazolo[4,3-b]pyridin-7-amine] |
| 50.1 | 15.8 | Cc1ccc(F)c(-c2cc(Nc3ccnc4cnn(CCC(C)(C)O)c34)ccn2)n1 [Example 135, 4-(7-(3′-fluoro-6′-methyl-2,2′-bipyridin-4-ylamino)-1H-pyrazolo[4,3-b]pyridin-1-yl)-2-methylbutan-2-ol] |
| 79.4 | 20 | Cc1ccc(F)c(-c2cc(Nc3ccnc4cnn([C@@H]5CCOC5)c34)c(C)cn2)n1 [Example 137, (R)—N-(3′-fluoro-5,6′-dimethyl-2,2′-bipyridin-4-yl)-1-(tetrahydrofuran-3-yl)-1H-pyrazolo[4,3-b]pyridin-7-amine] |

Continued, molecule first:

| SMILES | IC50 [1] [nM] | IC50 [2] [nM] |
| --- | --- | --- |
| CCNC(=O)n1ncc2nccc(Nc3cc(-c4nc(C)ccc4F)ncc3C)c21 [Example 115, N-ethyl-7-(3′-fluoro-5,6′-dimethyl-2,2′-bipyridin-4-ylamino)-1H-pyrazolo[4,3-b]pyridine-1-carboxamide] | 6.31 | < 1 |
| CNC(=O)n1ncc2nccc(Nc3cc(-c4cc(F)ccc4F)ncc3C)c21 [Example 116, 7-(2-(2,5-difluorophenyl)-5-methylpyridin-4-ylamino)-N-methyl-1H-pyrazolo[4,3-b]pyridine-1-carboxamide] | 25.1 | 1 |
| Cc1ccc(F)c(-c2cc(Nc3ccnc4cn(CC(=O)NC5CC5)nc34)c(C)cn2)n1 [Example 118, N-cyclopropyl-2-(7-(3′-fluoro-5,6′-dimethyl-2,2′-bipyridin-4-ylamino)-2H-pyrazolo[4,3-b]pyridin-2-yl)acetamide] | 794 | 100 |
| Cc1ccc(F)c(-c2cc(Nc3ccnc4cn(CCC(C)(C)O)nc34)c(C)cn2)n1 [Example 120, 4-(7-(3′-fluoro-5,6′-dimethyl-2,2′-bipyridin-4-ylamino)-2H-pyrazolo[4,3-b]pyridin-2-yl)-2-methylbutan-2-ol] | 200 | 20 |
| CCn1cc2nccc(Nc3cc(-c4nc(C)ccc4F)ncc3C)c2n1 [Example 126, 2-ethyl-N-(3′-fluoro-5,6′-dimethyl-2,2′-bipyridin-4-yl)-2H-pyrazolo[4,3-b]pyridin-7-amine] | 15.8 | 10 |
| Cc1cnc(-c2cc(Cl)ccc2F)cc1Nc1ccnc2cn(C)nc12 [Example 128, N-(2-(5-chloro-2-fluorophenyl)-5-methylpyridin-4-yl)-2-methyl-2H-pyrazolo[4,3-b]pyridin-7-amine] | 25.1 | 6.31 |
| Cc1ccc(F)c(-c2cc(Nc3ccnc4cn(CCF)nc34)c(C)cn2)n1 [Example 129, N-(3′-fluoro-5,6′-dimethyl-2,2′-bipyridin-4-yl)-2-(2-fluoroethyl)-2H-pyrazolo[4,3-b]pyridin-7-amine] | 15.8 | 6.31 |
| Cc1ccc(F)c(-c2cc(Nc3ccnc4cnn(CCF)c34)c(C)cn2)n1 [Example 130, N-(3′-fluoro-5,6′-dimethyl-2,2′-bipyridin-4-yl)-1-(2-fluoroethyl)-1H-pyrazolo[4,3-b]pyridin-7-amine] | 20 | 3.98 |
| Cc1ccc(F)c(-c2cc(Nc3c(F)cnc4cn(C)nc34)c(C)cn2)n1 [Example 131, 6-fluoro-N-(3′-fluoro-5,6′-dimethyl-2,2′-bipyridin-4-yl)-2-methyl-2H-pyrazolo[4,3-b]pyridin-7-amine] | 10 | 3.16 |
| Cc1ccc(F)c(-c2cc(Nc3c(F)cnc4cnn(C)c34)c(C)cn2)n1 [Example 132, 6-fluoro-N-(3′-fluoro-5,6′-dimethyl-2,2′-bipyridin-4-yl)-1-methyl-1H-pyrazolo[4,3-b]pyridin-7-amine] | 126 | 63.1 |
| Cc1ccc(F)c(-c2cc(Nc3ccnc4cn([C@@H]5CCOC5)nc34)c(C)cn2)n1 [Example 136, (R)—N-(3′-fluoro-5,6′-dimethyl-2,2′-bipyridin-4-yl)-2-(tetrahydrofuran-3-yl)-2H-pyrazolo[4,3-b]pyridin-7-amine] | 79.4 | 6.31 |
